Experimental data as given in PubChem BioAssay AID1259411 (Chemical Carcinogenesis Research Information System (CCRIS), 2018).
The source made the active and inactive calls. The rule behind the calls is not given here.

Tested on: rodent carcinogenicity bioassays, tumor incidence
Test: CCRIS carcinogenicity studies
Procedure, shortened: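 Archive of carcinogenicity, mutagenicity, tumor promotion and tumor inhibition results drawn from journals, NCI reports and other sources, expert-reviewed; covers 1985-2011 and is no longer updated.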

Cc1ccc([N+](=O)[O-])cc1
carcinogen call (Species: MOUSE, Strain/Sex: B6C3F1/FEMALE, Route: ORAL, Dose: 0, 1250, 2500, 5000 PPM FOR 105-106 WK (STUDY DURATION: 105-106 WK), Dose: 0, 1250, 2500, 5000 PPM FOR 105-106 WK (STUDY DURATION: 105-106 WK)): inactive; negative | carcinogen call (Species: MOUSE, Strain/Sex: B6C3F1/MALE, Route: ORAL, Dose: 0, 1250, 2500, 5000 PPM FOR 105-106 WK (STUDY DURATION: 105-106 WK), Dose: 0, 1250, 2500, 5000 PPM FOR 105-106 WK (STUDY DURATION: 105-106 WK), Tumor Site: Type of Lesion: LUNG: ALVEOLAR/BRONCHIOLAR ADENOMA OR CARCINOMA): equivocal | carcinogen call (Species: RAT, Strain/Sex: F344/FEMALE, Route: ORAL, Dose: 0, 1250, 2500, 5000 PPM FOR 105-106 WK (STUDY DURATION: 105-106 WK), Dose: 0, 1250, 2500, 5000 PPM FOR 105-106 WK (STUDY DURATION: 105-106 WK), Tumor Site: Type of Lesion: CLITORAL GLAND: ADENOMA OR CARCINOMA): active; positive | carcinogen call (Species: RAT, Strain/Sex: F344/MALE, Route: ORAL, Dose: 0, 1250, 2500, 5000 PPM FOR 105-106 WK (STUDY DURATION: 105-106 WK), Dose: 0, 1250, 2500, 5000 PPM FOR 105-106 WK (STUDY DURATION: 105-106 WK), Tumor Site: Type of Lesion: SKIN (SUBCUTANEOUS):FIBROMA, FIBROMA OR FIBROSARCOMA): equivocal

O=[N+]([O-])c1cc(O)c2ccc3cccc4ccc1c2c34
carcinogen call (Species: RAT, Strain/Sex: STRAIN-CD/FEMALE, Route: SUBCUTANEOUS, Dose: 0, 63 UMOL (TOTAL DOSE) ADMINISTERED OVER 8 WK BEGINNING WITHIN 24 HR OF BIRTH (STUDY DURATION: 86 WK)): inactive; negative

C#C[C@]1(O)CC[C@H]2[C@@H]3CCC4=C(CCC(=O)C4)[C@H]3CC[C@@]21C
carcinogen call (Species: MOUSE, Route: ORAL, Tumor Site: Type of Lesion: MAMMARY GLAND, PITUITARY GLAND): active; positive | carcinogen call (Species: RAT, Route: ORAL, Tumor Site: Type of Lesion: LIVER, MAMMARY GLAND, PITUITARY GLAND, Tumor Site: Type of Lesion: LIVER, MAMMARY GLAND, PITUITARY GLAND): active; positive

CC(=O)N(O[C@@H]1O[C@H](C(=O)O)[C@@H](O)[C@H](O)[C@H]1O)c1ccc2c(c1)Cc1ccccc1-2
carcinogen call (Species: RAT, Strain/Sex: F344/MALE, Route: INJECTION, Dose: 0, 1 UMOL IN 0.5 ML OF SOLUTION CONTAINING 0.4 ML PHOSPHATE BUFFERED SALINE/ GENTAMYCIN (PH 7) AND 0.1 ML DMSO INJECTED): inactive; negative | carcinogen call (Species: RAT, Strain/Sex: F344/MALE, Route: INJECTION, Dose: 0, 1 UMOL IN 0.5 ML OF SOLUTION CONTAINING 0.4 ML PHOSPHATE BUFFERED SALINE/ GENTAMYCIN (PH 8) AND 0.1 ML DMSO INJECTED): inactive; negative

N=C1C=CC(=C(c2ccc(N)cc2)c2ccc(N)cc2)C=C1
carcinogen call (Species: MOUSE, Strain/Sex: B6C3F1/FEMALE, Route: ORAL, Dose: 0, 500, 1000 PPM IN DIET FOR 103 WK (STUDY DURATION: 110-113 WK), Dose: 0, 500, 1000 PPM IN DIET FOR 103 WK (STUDY DURATION: 110-113 WK), Tumor Site: Type of Lesion: LUNG: ALVEOLAR/BRONCHIOLAR ADENOMA, ALVEOLAR/BRONCHIOLAR ADENOMA OR CARCINOMA;LIVER: HEPATOCELLULAR ADENOMA, HEPATOCELLU): active; positive | carcinogen call (Species: MOUSE, Strain/Sex: B6C3F1/MALE, Route: ORAL, Dose: 0, 500, 1000 PPM IN DIET FOR 103 WK (STUDY DURATION: 113-115 WK), Dose: 0, 500, 1000 PPM IN DIET FOR 103 WK (STUDY DURATION: 113-115 WK), Tumor Site: Type of Lesion: LIVER: HEPATOCELLULAR CARCINOMA, HEPATOCELLULAR ADENOMA OR CARCINOMA): active; positive | carcinogen call (Species: RAT, Strain/Sex: F344/FEMALE, Route: ORAL, Dose: 0, 500, 1000 PPM IN DIET FOR 103 WK (STUDY DURATION: 110-113 WK), Dose: 0, 500, 1000 PPM IN DIET FOR 103 WK (STUDY DURATION: 110-113 WK), Tumor Site: Type of Lesion: INTEGUMENTARY SYSTEM (SUBCUTANEOUS TISSUE): FIBROMA, FIBROMA OR FIBROSARCOMA, FIBROMA OR SARCOMA OR FIBROSARCOMA, MAMMAR): active; positive | carcinogen call (Species: RAT, Strain/Sex: F344/MALE, Route: ORAL, Dose: 0, 1000, 2000 PPM IN DIET FOR 103 WK (STUDY DURATION: 110-113 WK), Dose: 0, 1000, 2000 PPM IN DIET FOR 103 WK (STUDY DURATION: 110-113 WK), Tumor Site: Type of Lesion: INTEGUMENTARY SYSTEM (SKIN): SQUAMOUS CELL CARCINOMA, SQUAMOUS CELL PAPILLOMA OR CARCINOMA, TRICHOEPITHELIOMA, SEBACEOUS): active; positive | carcinogen call (Species: RAT, Strain/Sex: SPRAGUE-DAWLEY/FEMALE, Route: GAVAGE, Dose: 0, 300 MG/KG BW 2/WK FOR 18 WK WITH A 1 WK REST AFTER 12 WK THEN STARTING AT 19 WK 150 MG/KG BW 2/WK FOR DURATION OF STU): inactive; negative | carcinogen call (Species: RAT, Strain/Sex: SPRAGUE-DAWLEY/MALE, Route: GAVAGE, Dose: 0, 300 MG/KG BW 2/WK FOR 18 WK WITH A 1 WK REST AFTER 12 WK THEN STARTING AT 19 WK 150 MG/KG BW 2/WK FOR DURATION OF STU): inactive; negative

O=[N+]([O-])c1c2ccc3ccccc3c2cc2ccc3ccccc3c12
carcinogen call (Species: MOUSE, Strain/Sex: B6C3F1/MALE, Route: INTRAPERITONEAL, Dose: 0, 400 NMOL IN 35 µL DMSO (TOTAL DOSE) ADMINISTERED IN DOSES OF 1/7, 2/7, AND 4/7 OF THE TOTAL DOSE ON DAYS 1,8, AND 15, Tumor Site: Type of Lesion: LIVER :ADENOMA): active; positive

C=CSCCC(N)C(=O)O (stereo not given)
carcinogen call (Species: RAT, Strain/Sex: F344/MALE, Route: INTRAPERITONEAL, Dose: 0, 50-100 MG/KG 5 D/WK FOR 12 WK, STUDY DURATION: 25 MO, Dose: 0, 50-100 MG/KG 5 D/WK FOR 12 WK, STUDY DURATION: 25 MO, Tumor Site: Type of Lesion: LIVER: HEPATOCELLULAR CARCINOMA): active; positive | carcinogen call (Species: RAT, Strain/Sex: F344/MALE, Route: ORAL, Dose: 0, 0.05% IN METHYL-DEFICIENT DIET FOR 20 MO, Tumor Site: Type of Lesion: LIVER: HEPATOCELLULAR CARCINOMA): active; positive

CN(N=O)C(CCCO)c1cccnc1 (stereo not given)
carcinogen call (Species: MOUSE, Strain/Sex: STRAIN-A/FEMALE, Route: INTRAPERITONEAL, Dose: 0, 200 UMOL TOTAL DOSE ADMINISTERED IN SUBDOSES 3/WK FOR 7 WK (STUDY DURATION: 37 WK)): inactive; negative

Cc1cc2c(c3ccc4ccccc4c13)CCC2=O
carcinogen call (Species: MOUSE, Strain/Sex: TO/MALE, FEMALE, Route: DERMAL, Dose: 0, 50 UG (10 µL OF A 0.5% W/V TOLUENE SOLUTION) 2/WK FOR 70 WK (STUDY DURATION: 70 WK), Tumor Site: Type of Lesion: SKIN: CARCINOMA): active; positive

Clc1cc(Cl)c(-c2cc(Cl)c(Cl)cc2Cl)cc1Cl
carcinogen call (Species: RAT, Strain/Sex: SPRAGUE-DAWLEY/FEMALE, Route: ORAL, Dose: 0, 10, 100, 300, 1000, 3000 NG/KG/D (STUDY DURATION: 2 YRS), Dose: 0, 10, 100, 300, 1000, 3000 NG/KG/D (STUDY DURATION: 2 YRS)): inactive; negative | carcinogen call (Species: Rat, Strain/Sex: Harlan Sprague-Dawley/Female, Route: Gavage, Dose: 0, 3000 ug/kg in corn oil:acetone (99:1) 5 d/wk for 30 wk then vehicle for remainder of 2 yr study, Tumor Site: Type of Lesion: Liver: Cholangioma (0/53, 2/50)): equivocal | carcinogen call (Species: Rat, Strain/Sex: Harlan Sprague-Dawley/Female, Route: Gavage, Dose: 0, 10, 100, 300, 1000, 3000 ug/kg in corn oil:acetone (99:1) 5 d/wk for 2 yr, Dose: 0, 10, 100, 300, 1000, 3000 ug/kg in corn oil:acetone (99:1) 5 d/wk for 2 yr; Tumor Site: Type of Lesion: Liver: Cholangioma 0/53, 0/54, 0/53, 0/53, 2/53, 0/51)): equivocal

C[C@H]1[C@H](c2ccc(Cl)cc2)SC(=O)N1C(=O)NC1CCCCC1
carcinogen call (Species: Rat, Strain/Sex: Fischer 344/Female (70/Group), Route: Oral, Dose: 0, 60, 430, 3000 ppm in diet for 24 mo, study duration 24 mo, Dose: 0, 60, 430, 3000 ppm in diet for 24 mo, study duration 24 mo): inactive; negative | carcinogen call (Species: Rat, Strain/Sex: Fischer 344/Male (70/Group), Route: Oral, Dose: 0, 60, 430, 3000 ppm in diet for 24 mo, study duration 24 mo, Dose: 0, 60, 430, 3000 ppm in diet for 24 mo, study duration 24 mo, Tumor Site: Type of Lesion: Mammary gland: fibroadenoma (0, 1, 2, 6)): active; positive. (department of pesticides regulation reviewer describes as possible ad
